{"source": "patent US7485652B2", "about": "“Indolyl derivatives as liver-X-receptor (LXR) modulators” (Hoffmann-La Roche Inc., priority 2004, dated 2009)", "key": {"human LXR alpha": {"molecular_target": "T1, human LXR alpha (Homo sapiens, UniProt Q13133)", "T1 construct": "human LXR alpha (aa 164 to 447); made in house; host or cells: E. coli BL21(pLysS)", "T1 sequence (Q13133 164-447)": "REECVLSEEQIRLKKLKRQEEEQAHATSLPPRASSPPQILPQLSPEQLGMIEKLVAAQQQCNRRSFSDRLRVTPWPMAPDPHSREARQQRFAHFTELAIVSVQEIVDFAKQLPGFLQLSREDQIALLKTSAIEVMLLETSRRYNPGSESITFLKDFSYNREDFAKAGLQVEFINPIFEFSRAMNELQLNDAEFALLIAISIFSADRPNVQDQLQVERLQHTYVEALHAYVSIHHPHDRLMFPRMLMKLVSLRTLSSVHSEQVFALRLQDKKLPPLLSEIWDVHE", "experiment": "Radioligand binding assay (scintillation proximity), LXR alpha", "conditions": "GST-LXRα-LBD on SPA beads, radioligand displacement; read-out: LXRalpha Binding IC50", "description": "(§1) The following tests were carried out in order to determine the activity of the compounds of the present invention. Background information on the performed assays can be found in: Nichols J S et al. “Development of a scintillation proximity assay for peroxisome proliferator-activated receptor gamma ligand binding domain”, Anal Biochem. 1998, 257: 112-119.\n(§2) Mammalian expression vectors were constructed to express full-length human LXR alpha and LXR beta. Bacterial expression vectors were constructed to produce glutathione-s-transferase (GST) fused to the ligand binding domains (LBD) of human LXR alpha (aa 164 to 447) and human LXR beta (aa 155 to 460). To accomplish this, the portions of the sequences encoding the LBDs were amplified from full-length clones by PCR and then subdoned into the plasmid vectors. Final clones were verified by DNA sequence analysis (Willy et al., Genes Dev. 1995, 9:1033-45; Song et al., Proc Natl Acad Sci USA.1994, 91:10809-13). […]\n(§3) LXR alpha and LXR beta receptor binding were assayed in buffer consisting of 50 mM HEPES, pH 7.4, 10 mM NaCl, 5 mM MgCl2. […] All binding assays were performed in 96-well plates and the amount of bound ligand was measured on a Packard TopCount using OptiPlates (Packard). Dose response curves were measured within a range of concentration from 10^−10 M to 10^−4 M."}, "human LXR beta": {"molecular_target": "T2, human LXR beta (Homo sapiens, UniProt P55055)", "T2 construct": "human LXR beta (aa 155 to 460); made in house; host or cells: E. coli BL21(pLysS)", "T2 sequence (P55055 155-460)": "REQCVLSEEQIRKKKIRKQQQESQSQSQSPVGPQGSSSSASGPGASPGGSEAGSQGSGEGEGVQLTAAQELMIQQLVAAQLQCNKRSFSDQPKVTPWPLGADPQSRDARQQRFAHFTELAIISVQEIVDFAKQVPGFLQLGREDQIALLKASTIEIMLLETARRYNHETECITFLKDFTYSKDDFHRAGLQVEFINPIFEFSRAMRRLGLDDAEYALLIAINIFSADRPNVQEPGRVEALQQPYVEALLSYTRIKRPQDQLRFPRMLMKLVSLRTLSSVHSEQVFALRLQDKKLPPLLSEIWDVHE", "experiment": "Radioligand binding assay (scintillation proximity), LXR beta", "conditions": "GST-LXR beta-LBD on SPA beads, radioligand displacement; read-out: LXRbeta Binding IC50", "description": "as §1, §2, §3"}}, "data": [{"smiles": "CC1Cc2cc(C(O)(C(F)(F)F)C(F)(F)F)ccc2N1Cc1cccc(CO)c1", "note": "(stereo not shown) [Example 50, 1,1,1,3,3,3-hexafluoro-2-[1-(3-hydroxymethyl-benzyl)-2-methyl-2,3-dihydro-1H-indol-5-yl]-propan-2-ol]", "values": [{"measurement": "IC50", "setting": "human LXR alpha", "value": 0.02, "unit": "µM"}, {"measurement": "IC50", "setting": "human LXR beta", "value": 0.006, "unit": "µM"}]}, {"smiles": "Cc1cc2cc(C(O)(C(F)(F)F)C(F)(F)F)ccc2n1Cc1ccccc1", "note": "[Example 80, 2-(1-benzyl-2-methyl-1H-indol-5-yl)-1,1,1,3,3,3-hexafluoro-propan-2-ol]", "values": [{"measurement": "IC50", "setting": "human LXR alpha", "value": 0.03, "unit": "µM"}, {"measurement": "IC50", "setting": "human LXR beta", "value": 0.05, "unit": "µM"}]}]}
